Measured values published in patent publication US5919682A, “Overproduction of neuronal nitric oxide synthase” (Board of Regents, University of Texas System, priority 1995, dated 1999).
Where “and” joins values, the source holds several entries; their conditions need not be identical. Identical values can stand only once. Entries after “also recorded” stand apart in the source; their conditions may differ.

Assays:
E. coli-expressed nNOS [1] = target: T1, E. coli-expressed nNOS (Rattus norvegicus, UniProt P29476); settings: purified nnos, 2 min
T1 sequence (P29476 whole entry): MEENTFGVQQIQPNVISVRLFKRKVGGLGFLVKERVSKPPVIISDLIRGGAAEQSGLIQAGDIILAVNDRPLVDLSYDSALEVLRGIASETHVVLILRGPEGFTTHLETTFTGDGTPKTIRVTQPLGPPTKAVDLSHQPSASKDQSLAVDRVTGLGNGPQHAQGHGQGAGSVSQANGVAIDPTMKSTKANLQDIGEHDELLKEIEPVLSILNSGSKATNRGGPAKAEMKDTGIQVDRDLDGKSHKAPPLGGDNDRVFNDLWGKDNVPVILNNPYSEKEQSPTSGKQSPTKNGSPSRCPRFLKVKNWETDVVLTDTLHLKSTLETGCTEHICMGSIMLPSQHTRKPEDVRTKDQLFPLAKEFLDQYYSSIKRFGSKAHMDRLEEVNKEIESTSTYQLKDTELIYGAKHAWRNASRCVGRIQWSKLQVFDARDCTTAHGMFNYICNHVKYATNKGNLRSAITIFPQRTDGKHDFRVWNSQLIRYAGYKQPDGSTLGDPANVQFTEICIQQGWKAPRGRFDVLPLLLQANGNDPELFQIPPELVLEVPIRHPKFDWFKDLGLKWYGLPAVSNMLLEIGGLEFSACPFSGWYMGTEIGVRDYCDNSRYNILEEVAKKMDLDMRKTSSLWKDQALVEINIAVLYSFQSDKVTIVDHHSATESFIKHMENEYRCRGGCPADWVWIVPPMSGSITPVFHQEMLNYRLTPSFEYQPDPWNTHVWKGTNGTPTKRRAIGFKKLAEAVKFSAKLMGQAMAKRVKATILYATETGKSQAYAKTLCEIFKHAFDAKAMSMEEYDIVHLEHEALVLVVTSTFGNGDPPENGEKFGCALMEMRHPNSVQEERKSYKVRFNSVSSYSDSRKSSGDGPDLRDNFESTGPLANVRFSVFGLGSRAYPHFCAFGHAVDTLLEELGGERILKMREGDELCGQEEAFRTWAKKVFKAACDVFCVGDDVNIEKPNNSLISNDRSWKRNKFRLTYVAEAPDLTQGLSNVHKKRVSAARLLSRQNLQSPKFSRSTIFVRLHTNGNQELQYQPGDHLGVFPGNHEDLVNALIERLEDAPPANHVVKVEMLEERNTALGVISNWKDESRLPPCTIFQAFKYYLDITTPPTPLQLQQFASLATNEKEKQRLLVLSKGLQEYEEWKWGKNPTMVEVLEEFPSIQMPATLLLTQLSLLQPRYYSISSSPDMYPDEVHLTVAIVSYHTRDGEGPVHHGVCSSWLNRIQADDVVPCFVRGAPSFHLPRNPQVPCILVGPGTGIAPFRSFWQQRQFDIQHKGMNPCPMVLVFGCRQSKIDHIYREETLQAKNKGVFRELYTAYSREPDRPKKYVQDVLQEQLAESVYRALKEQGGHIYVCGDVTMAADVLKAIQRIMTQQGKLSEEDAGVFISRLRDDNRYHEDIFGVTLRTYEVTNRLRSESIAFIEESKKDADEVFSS
Method: Enzymatic activity determined by the rate of NO. formation. The rate of nitric oxide formation was measured using both the hemoglobin capture assay (Kelm and Schrader, 1990), performed at 25° C. as described by Sheta, et al. (1994), and the method of Bredt and Snyder (1990), which monitors the formation of [^3 H] L-citrulline from [^3 H] […] Each reaction mixture, containing 0.5 mg of enzyme, was incubated at 25° C. for 2 minutes (over which time the reaction is linear). For Km analysis, the concentration of [^3 H]
Enzymatic activity of purified E. coli-expressed enzyme.

[2] = test system: human kidney 293 cell-purified nNOS; assay: Km analysis, nNOS from human kidney 293 cells; format: biochemical, rat; settings: read-out: Km for L-arginine
Method: (§1) Enzymatic activity determined by the rate of NO. formation. […] L-citrulline from [^3 H] […] For Km analysis, the concentration of [^3 H]
These values are in excellent agreement with each other and with the Km value of 2 μM for nNOS reported by Bredt and Snyder (1990).

E. coli-expressed nNOS [3] = target: T1, E. coli-expressed nNOS; assay: Substrate perturbation difference spectrophotometry (spectral binding); parameters: made in house; host or cells: E. coli BL21 co-transformed with pNOSpCW and pGroELS; settings: 1 mM imidazole present; assuming Kd imidazole 160 μM; read-out: spectral binding constant (KS)
Method: Studies were performed as described in Example 2 using 1.5 μM nNOS in the presence of 1 mM imidazole.
(§2) Spectrophotometric methods. Absolute spectra and CO difference spectra were performed essentially as described by McMillan and Masters (1993) with the exception that all measurements were performed in buffer B and the CO difference spectra were obtained by reducing the protein and then bubbling the sample cuvette with CO. Substrate perturbation difference spectra were performed as described (McMillan and Masters, 1993), but in the presence of 1 mM imidazole to shift the entire population of nNOS to the low spin heme state. The molar protein concentration was determined based on heme content and Δε444-475 =75 mM^1 (Stuehr and Ikeda-Saito, 1992; McMillan and Masters, 1995). All spectral analyses were performed using a Shimadzu Model 2101 UV/visible dual-beam spectrophotometer.
(FIG. 2B), using the following:
apparent KS =KS (1+[Imidazole]/Kd imidazole).

E. coli-expressed nNOS [4] = target: T1, E. coli-expressed nNOS; assay: Absolute absorbance spectrum perturbation of nNOS; format: binding; parameters: made in house; host or cells: E. coli BL21 co-transformed with pNOSpCW and pGroELS; settings: imidazole 1 mM; arginine 2 μM
Method: Studies were performed as described in Example 2 using 3.2 μM nNOS.
as §2

[5] = test system: nNOS isolated from rat brain; settings: read-out: Km for L-arginine; reported by Bredt and Snyder (1990); cited from earlier work
E. coli-expressed nNOS [6] = target: T1, E. coli-expressed nNOS; assay: [3H]-NNA binding to purified E. coli-expressed nNOS by direct titration; parameters: made in house; host or cells: E. coli BL21 co-transformed with pNOSpCW and pGroELS
Method: Studies were performed as described in Example 4 using 10 pmole nNOS. Symbols are: circles, semi-purified E. coli-expressednNOS eluted from a 2'5'-ADP-Sepharose 4B column in the absence of BH4 during purification; triangles, purified E. coli-expressed nNOS purified in the presence of BH4 as described in Example 1; open symbols represent data from assays performed in the absence of additional BH4; filled symbols represent data from assays performed in the presence of 10 μM BH4.
The incubation was stopped by aspiration of the sample through the PVDF membrane. The wells were washed twice with 200 μl of 50 mM Tris, pH 7.6, air-dried for 10 minutes, 25 μl scintillation cocktail was added, and samples were counted.
Binding of N^ω -nitro-arginine to purified E. coli-expressed enzyme.

nNOS = settings: assumed value from McMillan and Masters, 1993, Wolff et al., read-out: Kd imidazole; cited from earlier work
[7] = Specific activity of nNOS (NO formation); format: biochemical
Text: as §1

Compound: C[C@H](O)[C@H](O)[C@H]1CNc2nc(N)[nH]c(=O)c2N1 [BH4, (6R)-5, 6, 7, 8 tetrahydro-L-biopterin]
- stimulation of turnover by BH4, fraction 1 (E. coli-expressed nNOS [1]): 2.7 fold
- stimulation of turnover by BH4, fraction 2 (E. coli-expressed nNOS [1]): 2.3 fold

Compound: N=C(N)NCCC[C@H](N)C(=O)O [L-arginine]
- Km [2]: 1.9 µM and ~2 µM
- Kd (E. coli-expressed nNOS [3]): ~717 nM and 717 nM
- shift of maximum heme absorbance at 400 nm (E. coli-expressed nNOS [4]): completely to the high spin form (peak at 395 nm)
- Km [5]: 2 µM and ~2 µM

Compound: N=C(NCCC[C@H](N)C(=O)O)N[N+](=O)[O-] [NNA, N^ω -nitro-L-arginine]
- Bmax (E. coli-expressed nNOS [6]; Fraction 1, (+) BH4): 0.54 pmol NNA/pmol nNOS
- Bmax (E. coli-expressed nNOS [6]; Fraction 1, (-) BH4): 0.078 pmol NNA/pmol nNOS
- Bmax (E. coli-expressed nNOS [6]; Fraction 2, (+) BH4): 0.69 pmol NNA/pmol nNOS
- Bmax (E. coli-expressed nNOS [6]; Fraction 2, (-) BH4): 0.67 pmol NNA/pmol nNOS
- binding of NNA to nNOS fraction 1 (E. coli-expressed nNOS [6]; fraction 1 (pre-BH4)): binds significantly to E. coli-expressed nNOS fraction 1 only in the presence of added BH4
- binding of NNA to nNOS fraction 2 (E. coli-expressed nNOS [6]; fraction 2 (65% BH4-saturated)): equally well in the presence or absence of added BH4

Compound: c1c[nH]cn1 [imidazole]
- shift of maximum heme absorbance at 400 nm (E. coli-expressed nNOS [4]): low spin form (peak at 428 nm)
- Kd (nNOS): 160000 nM

Compound: nNOS from JM109: nNOS co-expressed with groEL and groES in E. coli JM109, heavily proteolyzed upon cell lysis
- activity relative to nNOS purified from 293 cells ([7]; nNOS from E. coli JM109 co-expressing groEL and groES, heavily proteolyzed): 1%

Compound: nNOS: rat neuronal NOS overexpressed in E. coli BL21 with chaperonins groEL and groES
- specific activity compared with mammalian (kidney 293) cell-expressed nNOS [7]: equal to or exceeding the activity of kidney 293 cell-derived enzyme; also recorded: at least as high as that of kidney 293 cell-expressed enzyme; also recorded: at least equal to or greater than the mammalian cell-expressed nNOS
- specific activity / turnover ([7]; E. coli-expressed nNOS, both hemoglobin capture and citrulline assays): 450 nmol/min/mg
